Like-named read-outs stand apart in the source and are kept apart here.
Experiments:
Pseudomonas fluorescens = experiment: Alternate Minimum Inhibitory Concentrations Test (Table 4), Ps.fl; type: cell-based; details: Pseudomonas fluorescens; Table 4 alternate test; 250 ppm to 0.8 ppm in TSB, 72 hours, 30° C.; read-out: MIC Ps.fl
Description: The compounds of Examples 1-8, 12-26, 28-33, 36-37, 39-42, 44-109, 111-114, and 116-120 were subjected also to the following alternate biocidal activity test procedures with the results as indicated in Table 4.
The MIC test measures the viability of Pseudomonas fluorescens inoculum in TSB when exposed for 72 hours to varying concentrations of test compound.
A 125 μl aliquot of 10,000 ppm test compound in acetone was added to 4.88 ml of TSB to provide a 250 ppm solution. From this solution, 100 μL was transferred to the first row of two microtiter plate columns. Both replicates and five additional compounds were all serially diluted 1:1 to a final concentration of 0.8 ppm in TSB.
Inoculation was accomplished by diluting a 24 hr Ps fl culture, four mls per 36 mls of phosphate buffer solution. A Dynatech autoinoculator was used to transfer 1.5 μl of this cell suspension to the microtiter plates. The plates were incubated at 30° C. for 3 days before the lowest concentration at which no growth occurs was recorded in the database.

[1] = test system: Pseudoperonospora cubensis; experiment: whole plant or invertebrate; type: in vivo; details: Pseudoperonospora cubensis, in Cucumis sativus, 168 h; read-out: % Control CDM
Piricularia oryzae = experiment: whole plant or invertebrate; type: in vivo; details: Pyricularia oryzae; for pest or weed control at 100 ppm: read-out: % Control RB, application rate 100 ppm; for pest or weed control at 200 ppm: read-out: % Control RB, application rate 200 ppm
[2] = test system: Pellicularia filamentosa (f. sp. sasiki); experiment: whole plant or invertebrate; type: in vivo; details: 120 h; read-out: % Control RSB
Phytophthora infestans = experiment: whole plant or invertebrate; type: in vivo; details: Phytophthora infestans, in Solanum lycopersicum, 96 h
[3] = test system: Puccinia recondita (f. sp. tritici Races PKB and PLD); experiment: whole plant or invertebrate; type: in vivo; details: Puccinia recondita, 240 h; read-out: % Control WLR
[4] = test system: Erysiphe graminis (f. sp. tritici); experiment: whole plant or invertebrate; type: in vivo; details: Blumeria graminis; read-out: % Control WPM
[5] = test system: Puccinia graminis (f. sp. tritici Race 15B-2); experiment: whole plant or invertebrate; type: in vivo; details: Puccinia graminis, 336 h, read-out: % Control WSR

Structure (SMILES) | MIC (Pseudomonas fluorescens) | pest or weed control at 50 ppm [1] | pest or weed control at 100 ppm (Piricularia oryzae) | pest or weed control at 100 ppm [2] | pest or weed control at 100 ppm (Phytophthora infestans; read-out: % Control TLB) | pest or weed control at 100 ppm [3] | pest or weed control at 100 ppm [4] | pest or weed control at 200 ppm [5] | pest or weed control at 25 ppm (Piricularia oryzae; read-out: % Control RB, application rate 25 ppm) | pest or weed control at 200 ppm (Piricularia oryzae) | pest or weed control at 100 ppm (Phytophthora infestans; read-out: % Control TLB, application rate 100 ppm) | pest or weed control at 25 ppm [3] | pest or weed control at 12 ppm (Piricularia oryzae; read-out: % Control RB, application rate 12 ppm) | pest or weed control at 200 ppm [1] | pest or weed control at 200 ppm [2] | pest or weed control at 200 ppm (Phytophthora infestans; read-out: % Control TLB) | pest or weed control at 200 ppm [3] | pest or weed control at 200 ppm [4]
CCCCCCCCNC(=O)/C=C\SC(=O)c1ccc(F)cc1 [Compound 3, N-octyl-cis-3-[(4-fluorobenzoyl)thio]acrylamide] | > 250 µg/mL | 85% | 80% | 0% | 90% | 0% | 0% | 75% |  |  |  |  |  |  |  |  |  | 
CCCCCCCCNC(=O)/C=C\SC(=O)C1CCCCC1 [Compound 4, N-octyl-cis-3-(cyclohexanecarbonylthio)acrylamide] | > 250 µg/mL | 99% | 80% | 0% | 90% | 0% | 0% | 50% |  |  |  |  |  |  |  |  |  | 
CCCCCCCCNC(=O)/C=C\SC(=O)c1ccccc1Br [Compound 5, N-octyl-cis-3-[(2-bromobenzoyl)thio]acrylamide] | > 250 µg/mL | 50% |  | 0% | 90% | 0% | 0% | 75% | 80% |  |  |  |  |  |  |  |  | 
CCCCCCCCNC(=O)/C=C\SC(=O)c1cccnc1Cl [Compound 6, N-octyl-cis-3-[3-(2-chloropyridine)carbonylthio]acrylamide] | > 250 µg/mL | 85% | 50% | 0% | 90% | 0% | 0% | 90% |  |  |  |  |  |  |  |  |  | 
CCCCCCCCNC(=O)/C=C\SC(=O)c1ccc([N+](=O)[O-])cc1 [Compound 46, N-octyl-cis-3-[(4-nitrobenzoyl)thio]acrylamide] | > 250 µg/mL | 99% |  |  |  |  | 0% | 100% |  | 75% | 95% | 80% |  |  |  |  |  | 
CCCCCCCCNC(=O)/C=C\SC(=O)C1CC1 [Compound 49, N-octyl-cis-3-(cyclopropanecarbonylthio)acrylamide] | > 250 µg/mL | 99% |  |  | 80% |  |  | 75% |  |  |  |  | 50% |  |  |  |  | 
CCCCCCCCNC(=O)/C=C\SC(=O)c1sccc1C [Compound 50, N-octyl-cis-3-[(3-methyl-2-thiophene)carbonylthio]acrylamide] | > 250 µg/mL | 85% |  |  | 80% |  |  | 75% |  | 0% |  |  |  |  |  |  |  | 
CCCCCCCCNC(=O)/C=C\SC(=O)c1c[nH]c2ccccc12 [Compound 77, N-octyl-cis-3-[(3-indole)carbonylthio]acrylamide] | > 250 µg/mL |  |  |  |  |  |  |  |  | 90% |  |  |  | 85% | 0% | 90% | 80% | 0%
C=CCCC(=O)S/C=C\C(=O)NCCCCCCCC [Compound 83, N-octyl-cis-3-[(4-pentenoyl)thio]acrylamide] | > 250 µg/mL |  |  |  |  |  |  |  |  | 50% |  |  |  | 95% | 0% | 90% | 50% | 0%
CC/C=C/C(=O)S/C=C\C(=O)NCCCCCCCC [Compound 84, N-octyl-cis-3-[(trans-2-pentenoyl)thio]acrylamide] | > 250 µg/mL |  |  |  |  |  |  |  |  | 0% |  |  |  | 0% | 0% | 90% | 50% | 0%

— US5300672A (priority 1992, dated 1994)
